Assay results taken from patent publication US11396524B2, “Hydrate crystal of 3′,3′-cGAMP” (Yamasa Corporation, priority 2018, dated 2022).

Assays:
Type in all cases: physicochemical
[1] = Hygroscopicity test: standing 3 days in desiccator at 30° C. and 93% humidity, moisture content by the Karl-Fischer method; details: for Moisture content after standing / Moisture content before standing: Karl-Fischer method; for Moisture content after standing: after standing 3 days at 30° C., humidity 93% (saturated potassium nitrate desiccator); for Moisture content before standing: before standing at 30° C.; for Moisture content before standing / Δ Moisture content: humidity 93%; for Δ Moisture content: after minus before standing 3 days at 30° C.
Description: A hydrate crystal of 3′,3′-cGAMP according to the invention may be either a crystal of alkali metal salt or a crystal of free acid. Either is less hygroscopic than existing powder. Thus, each is easy to handle in various purposes and is thus useful as a pharmaceutical raw material or the like. Note that the wording “less hygroscopic” herein refers to the case where after (A) allowed to stand for 1 day under conditions at a temperature of 30° C. and a humidity of 43% and then (B) allowed to stand for 3 days under conditions at a temperature of 30° C. and a humidity of 93%, a substance of interest has a moisture content of 25% or less at the end point (B) and the difference in the moisture content between the end point (A) and the end point (B) is within ±5%.
The crystals obtained in the above Examples 1 and 2 as well as the lyophilized product obtained in the Reference Example were allowed to stand for 3 days in a desiccator filled with a saturated potassium nitrate solution and kept at a temperature of 30° C. and a humidity of 93%. The moisture content was compared between before and after the standing by the Karl-Fischer method.

[2] = Crystal moisture content by the Karl-Fischer method; details: for Moisture content after storage at a humidity of 43% for 1 day: stored at humidity 43% for 1 day
Description: In Example 1, the crystals of 3′,3′-cGAMP sodium salt were prepared. Here, the crystal moisture content immediately after drying was measured by the Karl-Fischer method. As a result, the moisture content was 7.9%. […] In addition, the crystals were stored at a humidity of 43% for 1 day so as to stabilize their moisture content. The moisture content was likewise measured.
The crystals of 3′,3′-cGAMP free acid as prepared in Example 2 were stored at a humidity of 43% for 1 day so as to stabilize their moisture content. Then, the crystal moisture content was measured by the Karl-Fischer method.

[3] = Stability test, crystals stored at 60° C.
Description: Meanwhile, the crystals were stored at 60° C. and subjected to a stability test.

| Substance | Moisture content after standing ([1]; sodium salt) | Moisture content before standing ([1]; sodium salt) | Δ Moisture content ([1]; sodium salt) | Moisture content after storage at a humidity of 43% for 1 day [2] | Moisture content after standing [1] | Moisture content before standing [1] | Δ Moisture content [1] | Stability under high temperature conditions (decomposition of 3′,3′-cGAMP) [3] | Moisture content immediately after drying ([2]; immediately after drying) |
| --- | --- | --- | --- | --- | --- | --- | --- | --- | --- |
| 3′,3′-cGAMP sodium salt [Reference Example, reference compound] | 36.01% | 12.94% | +23.07% |  |  |  |  |  |  |
| 3′,3′-cGAMP free acid [Example 2] |  |  |  | 24.7% | 23.09% | 24.71% | −1.62% | not apparently decomposed |  |
| 3′,3′-cGAMP sodium salt [Example 1] | 21.60% |  | +3.50% | 18.1% |  | 18.10% |  | not apparently decomposed | 7.9% |
